Experiments:
HFL-1 cells [1] = assay: IL-8 production assay (S1P induced IL-8); format: cell-based; conditions: Homo sapiens, HFL1; S1P (1 μM) induced IL-8 in HFL-1 cells, starvation medium without HSA; read-out: IL8 EC50
Experimental: This assay is designed to test inhibitory activity of compounds on S1P induced IL-8 on HFL-1 cells, ahuman fetal lung fibroblast cell line.
Human Fetal Lung cells (HFL-1) are seeded in 96 well plates in growth medium (F12K+10% heat inactivated FBS+l1% Pen/strep). After overnight incubation at 37° C., […] cells are refreshed with starvation medium without HSA (F12K+1% FBS+1% Pen/strep). On day three, compounds are added (10 point serial dilution, 30 μM highest concentration, 1/3 dilution, 0.3% DMSO final) and plates are incubated for one h at 37° C., 5% CO2. Subsequently S1P at 1 μM final concentration is added and plates are incubated for 16 to24 h at 37° C., […] after which the supermatant was collected. IL-8 levels in the supernatant are determined with the IL-8 ELISA of R&D systems.

HFL-1 cells [2] = assay: IL8 assay in the presence of Human Serum Albumin; conditions: HFL1, read-out: HSA IL8 EC50
S1PR2 = molecular target: T1, S1PR2 (Homo sapiens, UniProt O95136); assay: S1PR2 binding assay (competition with radioactively labeled S1P, SpA); conditions: membranes from stable cell line over expressing S1PR2, SpA beads; read-out: S1P2 EC50 (nM), S1PR2 binding EC50
T1 construct: expressed in transfected cells
How it was run: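 Scintillation proximity read-out after 2 h room-temperature incubation of compound, [3H]S1P and S1PR2-overexpressing cell membranes on WGA-coated beads. Buffer: 20 mM Tris pH 7.5, 100 mM NaCl, 10 mM MgCl2, 1 mM Na3VO4, 0.4% fatty-acid-free BSA; plates counted immediately after centrifugation.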

[3] = molecular target: T2, human GPCR sphingosine 1-phosphate receptor 2 (Homo sapiens, UniProt O95136); assay: S1PR2 antagonist Ca2+ flux assay; format: cell-based; conditions: antagonist mode, CHO-S1PR2 cells, S1P at EC80, Ca2+ fluorescence; read-out: S1P2 EC50 (nM), S1P2 antagonist EC50
T2 construct: host or cells: CHO
How it was run: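 Antagonist mode: 15 min after compound addition, S1P (EC80) stimulates Fluo8-loaded, 1 h-starved CHO-S1PR2 cells, Ca2+ read over 3 min; a prior 3-min read checks compound agonism. EC50 from peak/baseline fluorescence ratio, normalised versus vehicle and S1P EC50 (antagonist) or EC100 (agonist).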

T2 sequence (O95136 whole entry): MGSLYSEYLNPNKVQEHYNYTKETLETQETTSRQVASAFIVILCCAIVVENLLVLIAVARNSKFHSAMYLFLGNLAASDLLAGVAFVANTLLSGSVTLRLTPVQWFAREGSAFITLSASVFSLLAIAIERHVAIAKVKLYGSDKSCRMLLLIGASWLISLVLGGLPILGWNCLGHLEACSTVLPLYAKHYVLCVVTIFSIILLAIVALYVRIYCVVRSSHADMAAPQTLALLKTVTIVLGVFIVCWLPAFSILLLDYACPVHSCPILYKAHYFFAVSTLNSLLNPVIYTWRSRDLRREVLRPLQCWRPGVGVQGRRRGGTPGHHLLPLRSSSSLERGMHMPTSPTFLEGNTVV
T1 sequence (O95136 whole entry): as above

`COC1CCN(C(=O)Cn2nc(Cc3nc4cc(C#N)c(OCC(F)F)cc4[nH]3)c3ccccc3c2=O)C1` (stereo not drawn) [Compound 186, 6-(2,2-difluoroethoxy)-2-[[3-[2-(3-methoxypyrrolidin-1-yl)-2-oxo-ethyl]-4-oxo-phthalazin-1-yl]methyl]-1H-benzimidazole-5-carbonitrile] showed an EC50 (HFL-1 cells [1]) of 34.8 nM, an EC50 (HFL-1 cells [2]) of 80.9 nM and an EC50 (S1PR2) of 141 nM. The EC50 [3] was 25 nM.
`CC(C)(C)CNC(=O)Cn1nc(Cc2nc3cc(OCC(F)F)c(C#N)cc3[nH]2)c2ccccc2c1=O` [Compound 202, 2-[4-[[6-cyano-5-(2,2-difluoroethoxy)-1H-benzimidazol-2-yl]methyl)-1-oxo-phthalazin-2-yl]-N-(2,2-dimethylpropyl)acetamide] showed an EC50 (HFL-1 cells [1]) of 13.4 nM, an EC50 (HFL-1 cells [2]) of 479 nM and an EC50 (S1PR2) of 48 nM. It also gave an EC50 [3] of 6.86 nM.
In the case of `N#CCCN(C(=O)Cn1nc(Cc2nc3cc(OCC(F)F)c(C#N)cc3[nH]2)c2ccccc2c1=O)C1CC1` [Compound 181, 2-[4-[[6-cyano-5-(2,2-difluoroethoxy)-1H-benzimidazol-2-yl]methyl]-1-oxo-phthalazin-2-yl]-N-(2-cyanoethyl)-N-cyclopropyl-acetamide], the EC50 (HFL-1 cells [1]) is reported as 544 nM, the EC50 (HFL-1 cells [2]) is reported as 906 nM and the EC50 (S1PR2) is reported as 297 nM. The EC50 [3] was 95.8 nM.
Compound `N#Cc1cc2nc(Cc3nn(C4CN(CC(=O)O)C4)c(=O)c4ccccc34)cn2cc1OCC1CC1` [Compound 73] has an EC50 (HFL-1 cells [1]) of 365 nM, an EC50 (HFL-1 cells [2]) of 563 nM and an EC50 (S1PR2) of 478 nM. For the same compound, the EC50 [3] was 1330 nM.
For `CCC(C(=O)O)c1nn(Cc2cn3cc(OCC4CC4)c(C(F)(F)F)cc3n2)c2ccccc2c1=O` (stereo not drawn) [Compound 103, 2-[1-[[6-(cyclopropylmethoxy)-7-(trifluoromethyl)imidazo[1,2-a]pyridin-2-yl]methyl]-4-oxo-cinnolin-3-yl]butanoic acid], the EC50 (HFL-1 cells [1]) was 18.9 nM, the EC50 (HFL-1 cells [2]) was 108 nM and the EC50 (S1PR2) was 223 nM. The EC50 [3] was 4.59 nM.
Compound `N#Cc1cc2[nH]c(Cc3nn(CC(=O)N4CCC(C#N)CC4)c(=O)c4ccccc34)nc2cc1OCC(F)F` [Compound 219, 2-[[3-[2-(4-cyano-1-piperidyl)-2-oxo-ethyl]-4-oxo-phthalazin-1-yl]methyl]-6-(2,2-difluoroethoxy)-3H-benzimidazole-5-carbonitrile] has an EC50 (HFL-1 cells [1]) of 177 nM, an EC50 (HFL-1 cells [2]) of 607 nM and an EC50 (S1PR2) of 265 nM. The EC50 [3] was 32.4 nM.
`CC1(O)CCN(C(=O)Cn2nc(Cc3cn4cc(OCC5CC5)c(C#N)cc4n3)c3ccccc3c2=O)C1` (stereo not drawn) [Compound 210, 6-(cyclopropylmethoxy)-2-[[3-[2-(3-hydroxy-3-methyl-pyrrolidin-1-yl)-2-oxo-ethyl]-4-oxo-phthalazin-1-yl]methyl)imidazo[1,2-a]pyridine-7-carbonitrile] gave an EC50 (HFL-1 cells [1]) of 356 nM, an EC50 (HFL-1 cells [2]) of 188 nM and an EC50 (S1PR2) of 233 nM. It also gave an EC50 [3] of 102 nM.
Work on `O=C(O)c1nn(Cc2nc3cc(OCC4CC4)c(C(F)(F)F)cc3[nH]2)c2ccccc2c1=O` [Compound 104, (1-[[5-(cyclopropylmethoxy)-6-(trifluoromethyl)-1H-benzimidazol-2-yl]methyl]-4-oxocinnoline-3-carboxylic acid)] yielded an EC50 (HFL-1 cells [1]) of 4.55 nM, an EC50 (HFL-1 cells [2]) of 27 nM and an EC50 (S1PR2) of 22.4 nM. For the same compound, the EC50 [3] was 3.02 nM.
In the case of `C[C@@H]1CN(C(=O)Cn2nc(Cc3nc4cc(Cl)c(OCC5(C#N)CC5)cc4[nH]3)c3ccccc3c2=O)C[C@H](C)O1` [Compound 162, 1-[[6-chloro-2-[[3-[2-[(2S,6R)-2,6-dimethylmorpholin-4-yl]-2-oxo-ethyl]-4-oxo-phthalazin-1-yl]methyl]-3H-benzimidazol-5-yl]oxymethyl]cyclopropanecarbonitrile], the EC50 (HFL-1 cells [1]) is reported as 4.44 nM, the EC50 (HFL-1 cells [2]) is reported as 8.27 nM and the EC50 (S1PR2) is reported as 75.1 nM. The EC50 [3] was 9.07 nM.
In the case of `N#Cc1cc2[nH]c(Cc3nn(CC(=O)N4CCC5(C4)CC5(F)F)c(=O)c4ccccc34)nc2cc1OCC(F)F` (stereo not drawn) [Compound 235, 2-[[3-[2-(2,2-difluoro-5-azaspiro[2.4]heptan-5-yl)-2-oxo-ethyl]-4-oxo-phthalazin-1-yl]methyl]-6-(2,2-difluoroethoxy)-3H-benzimidazole-5-carbonitrile], the EC50 (HFL-1 cells [1]) is reported as 49.2 nM, the EC50 (HFL-1 cells [2]) is reported as 159 nM and the EC50 (S1PR2) is reported as 117 nM. The EC50 [3] was 18.2 nM.
`O=C(Cn1nc(Cn2cc3cc(OCC4CC4)c(Cl)cc3n2)c2ccccc2c1=O)N[C@H]1CCC[C@@H]1O` [Compound 143, 2-[4-[[6-chloro-5-(cyclopropylmethoxy)indazol-2-yl]methyl]-1-oxo-phthalazin-2-yl]-N-[(1S,2S)-2-hydroxycyclopentyl]acetamide] gave an EC50 (HFL-1 cells [1]) of 21.6 nM, an EC50 (HFL-1 cells [2]) of 179 nM and an EC50 (S1PR2) of 15.2 nM. For the same compound, the EC50 [3] was 13.8 nM.
`N#Cc1cc2nc(Cc3nn(CC(=O)N(CCO)CC(F)F)c(=O)c4ccccc34)[nH]c2cc1OCC(F)F` [Compound 194, 2-[4-[[5-cyano-6-(2,2-difluoroethoxy)-1H-benzimidazol-2-yl]methyl]-1-oxo-phthalazin-2-yl]-N-(2,2-difluoroethyl)-N-(2-hydroxyethyl)acetamide] showed an EC50 (HFL-1 cells [1]) of 186 nM, an EC50 (HFL-1 cells [2]) of 453 nM and an EC50 (S1PR2) of 268 nM. The EC50 [3] was 41.9 nM.
`O=C(Cn1nc(Cc2nc3cc(Cl)c(OCC(F)F)cc3[nH]2)c2ccccc2c1=O)N1CCOCC1` [Compound 151, 4-[[5-chloro-6-(2,2-difluoroethoxy)-1H-benzimidazol-2-yl]methyl]-2-(2-morpholino-2-oxo-ethyl)phthalazin-1-one] was tested, and the EC50 (HFL-1 cells [1]) was 7.11 nM, the EC50 (HFL-1 cells [2]) was 43.7 nM and the EC50 (S1PR2) was 34.7 nM. It also gave an EC50 [3] of 13.6 nM.
With `O=C(O)Cc1nn(Cc2nc3cc(OCC(F)F)c(Cl)cc3[nH]2)c2ccccc2c1=O` [Compound 78, {1-[6-Chloro-5-(2,2-difluoro-ethoxy)-1H-benzoimidazol-2-ylmethyl]-4-oxo-1,4-dihydro-cinnolin-3-yl}-acetic acid] the EC50 (HFL-1 cells [1]) was 4.65 nM, the EC50 (HFL-1 cells [2]) was 41.5 nM and the EC50 (S1PR2) was 55.9 nM. It also gave an EC50 [3] of 6.16 nM.
Compound `CC1(COc2cc3nc(Cc4nn(CC(=O)O)c(=O)c5ccccc45)[nH]c3cc2Cl)CC1` [Compound 131, 2-[4-[[5-chloro-6-[(1-methylcyclopropyl)methoxy]-1H-benzimidazol-2-yl]methyl]-1-oxo-phthalazin-2-yl]acetic acid] has an EC50 (HFL-1 cells [1]) of 12 nM, an EC50 (HFL-1 cells [2]) of 267 nM and an EC50 (S1PR2) of 197 nM. For the same compound, the EC50 [3] was 13.2 nM.
Work on `O=C(O)Cc1nn(Cc2nc3cc(OCC4CC4)c(Br)cc3[nH]2)c2ccccc2c1=O` [Compound 109, 2-[1-[[6-bromo-5-(cyclopropylmethoxy)-1H-benzimidazol-2-yl]methyl]-4-oxo-cinnolin-3-yl]acetic acid] yielded an EC50 (HFL-1 cells [1]) of 0.137 nM, an EC50 (HFL-1 cells [2]) of 2.03 nM and an EC50 (S1PR2) of 3.84 nM. The EC50 [3] was 2.32 nM.
`CC(C(=O)N1CCOCC1)n1nc(Cc2nc3cc(OCC4CC4)c(Cl)cc3[nH]2)c2ccccc2c1=O` (stereo not drawn) [Compound 155, 4-(6-Chloro-5-cyclopropylmethoxy-1H-benzoimidazol-2-ylmethyl)-2-(1-methyl-2-morpholin-4-yl-2-oxo-ethyl)-2H-phthalazin-1-one] was tested, and the EC50 (HFL-1 cells [1]) was 49.5 nM, the EC50 (HFL-1 cells [2]) was 230 nM and the EC50 (S1PR2) was 229 nM. It also gave an EC50 [3] of 14.7 nM.
`CN(C)[C@H]1CCN(C(=O)Cn2nc(Cn3cc4cc(OCC(F)F)c(C#N)cc4n3)c3ccccc3c2=O)C1` [Compound 207, 5-(2,2-difluoroethoxy)-2-[[3-[2-[(3S)-3-(dimethylamino)pyrrolidin-1-yl]-2-oxo-ethyl]-4-oxo-phthalazin-1-yl]methyl]indazole-6-carbonitrile] showed an EC50 (HFL-1 cells [1]) of 29900 nM, an EC50 (HFL-1 cells [2]) of 3030 nM and an EC50 (S1PR2) of 21900 nM. For the same compound, the EC50 [3] was at least 19800 nM.
`O=c1c2ccccc2c(Cc2nc3cc(Cl)c(OC(F)(F)F)cc3[nH]2)nn1CC1CNC1` [Compound 61, 2-(azetidin-3-ylmethyl)-4-[[6-chloro-5-(trifluoromethoxy)-1H-benzimidazol-2-yl]methyl]phthalazin-1-one] showed an EC50 (HFL-1 cells [1]) of 591 nM, an EC50 (HFL-1 cells [2]) of 1120 nM and an EC50 (S1PR2) of 581 nM. For the same compound, the EC50 [3] was 677 nM.
With `O=c1c2ccccc2c(Cc2nc3cc(Cl)c(OC(F)(F)F)cc3[nH]2)nn1C1CCNCC1` [Compound 62, 4-[[6-chloro-5-(trifluoromethoxy)-1H-benzimidazol-2-yl]methyl]-2-(4-piperidyl)phthalazin-1-one] the EC50 (HFL-1 cells [1]) was 349 nM, the EC50 (HFL-1 cells [2]) was 6430 nM and the EC50 (S1PR2) was 453 nM. It also gave an EC50 [3] of 968 nM.
`COCC(O)CNC(=O)Cn1nc(Cc2nc3cc(C#N)c(OCC(F)F)cc3[nH]2)c2ccccc2c1=O` (stereo not drawn) [Compound 192, 2-[4-[[5-cyano-6-(2,2-difluoroethoxy)-1H-benzimidazol-2-yl]methyl]-1-oxo-phthalazin-2-yl]-N-(2-hydroxy-3-methoxypropyl)acetamide] gave an EC50 (HFL-1 cells [1]) of 156 nM, an EC50 (HFL-1 cells [2]) of 666 nM and an EC50 (S1PR2) of 190 nM. For the same compound, the EC50 [3] was 41 nM.
